Results on one compound are retold here after patent publication US8524754B2, “Polymorphic, crystalline and mesophase forms of sodium 2-(5-bromo-4-(4-cyclopropylnaphthalen-1-yl)-4H-1,2,4-triazol-3-ylthio) acetate, and uses thereof” (Ardea Biosciences, Inc., priority 2010, dated 2013).

The nature of the data set: Solid-state stability of packaged Form A / crystalline polymorphs under accelerated and long term conditions. The data set is classed as physicochemical. The note with it: for degradation of packaged Form A: double LDPE bag inside heat sealed anhydrous foil bag in HDPE container. As to the method:
Form A of sodium 2-(5-bromo-4-(4-cyclopropylnaphthalen-1-yl)-4H-1,2,4-triazol-3-ylthio)acetate was tested under various conditions to determine thermodynamic stability. […] Packaging was in a double low density polyethylene plastic bag inside a heat sealed anhydrous foil bag in an HDPE container.
The improved stability of the crystalline polymorphs of sodium 2-(5-bromo-4-(4-cyclopropylnaphthalen-1-yl)-4H-1,2,4-triazol-3-ylthio)acetate provides for the preparation of pharmaceutical dosage forms displaying reduced variability in the dosage present in a given dosage form, reduction in the presence of impurities in the final pharmaceutical product, and an improved shelf life of formulated dosage forms when compared to the pharmaceutical dosage form prepared with the amorphous solid state form of the carboxylic acid.

Turning to `O=C([O-])CSc1nnc(Br)n1-c1ccc(C2CC2)c2ccccc12.[Na+]` [Form A, sodium 2-(5-bromo-4-(4-cyclopropylnaphthalen-1-yl)-4H-1,2,4-triazol-3-ylthio)acetate], the “degradation of packaged Form A” value is “No degradation” (accelerated conditions (40° C.-75% RH), 6 months) and “no degradation” (long term conditions (25° C.-60% RH), 12 months). Moreover, for the setting “solid state”, the “stability in comparison to the amorphous solid state form of the carboxylic acid (free acid)” value is recorded as “improvement over the solid state amorphous free acid”.
